Laboratory results taken from patent US8076486B2, “Heteroaryl-substituted arylaminopyridine derivatives as MEK inhibitors” (Merck Serono S.A., priority 2006, dated 2011).
pIC50: −log10 of the molar value.

Legend:
[1] = system: human melanoma A375 cells; test: Tumor Cell Proliferation Assay (ATP Lite), A375; type: cell-based; settings: A-375, 96 h, 4 days, ATPlite
Procedure: (§1) Assay 2: Tumor Cell Proliferation Assays (ATP Lite)
(§2) Murine colon C26 (1500 cells/well), human melanoma A375 (2000 cells/well), or human pancreatic MiaPaCa-2 cells (2000 cells/well) were plated in white, 96 well plates (Corning) in growth media (DMEM with 10% fetal bovine serum, 2 mM glutamine for C26 and MiaPaCa-2, and RPMI with 10% fetal bovine serum, 2 mM glutamine for A375) and cultured overnight at 37° C. in a humidified, 5% CO2 incubator. Inhibitors were serially diluted in 100% DMSO and subsequently added to the cells, in growth media, to reach a final concentration of 0.25% DMSO. The cells were incubated for 4 days in the presence of the test compounds and the proliferation was quantitated using the ATPlite cell proliferation kit (Packard).

[2] = system: human pancreatic MiaPaCa-2 cells; test: Tumor Cell Proliferation Assay (ATP Lite), MiaPaCa-2; type: cell-based; settings: MIA PaCa-2, 96 h, 4 days, ATPlite, read-out: MiaPaCa2 cell proliferation IC50
Procedure: as §1, §2

[3] = biological target: human MEK1 (Homo sapiens, UniProt Q02750, S218E/S222E); test: MEK-1 Enzyme Assay (LANCE-HTRF); type: biochemical; settings: MEK-1 EE, ERK-2K52A substrate, 9 uM ATP, 1.5 hrs
Procedure: Assay 1: MEK-1 Enzyme Assay (LANCE-HTRF)
Inhibition of human MEK1 kinase activity was monitored with a homogenous, fluorescence-based assay. The assay uses time resolved fluorescence resonance energy transfer to probe for phosphorylation of ERK1 by MEK1. The detailed procedure is described in the following:
Constititutively active MEK-1 EE (150 ng/well) and ERK-2K52A (110 ng/well) were incubated in black, 384 well Optiplates (Perkin Elmer) for 1.5 hrs at room temperature, in the presence of increasing concentrations of inhibitors. The total reaction volume was 50 ul. The inhibitors were serial diluted in kinase buffer (9 uM ATP, 50 mM Tris-Hcl pH 8.0, 10 mM MgCl2, 1 mM DTT and 100 uM Na3VO4), to a final concentration of 1% DMSO. At the end of the incubation, the enzyme reaction was quenched by adding 50 ul of assay buffer containing 50 mM Tris-Hcl, 50 mM EDTA, 0.1% BSA and a mixture of 1.25 ug/mL europium labeled anti-phosphotyrosine mAb (Perkin Elmer) and 5 ug/mL of allophycocyanin labeled anti-GST antibody (CIS-US). Plates were agitated on a plate shaker for 30 minutes and the phosphorylation of the ERK-2K52A substrate was measured by homogeneous time resolved fluorescence (HTRF) at 340 nm excitation and […] emission filters on the VICTOR V fluorescence plate reader. Phosphorylation is expressed as a ratio of 665 nM signal×10,000/615 nM signal. To assess the inhibitory potential of the compounds, IC50-values were determined.

[4] = system: Murine colon C26 cells; test: Tumor Cell Proliferation Assay (ATP Lite), C26; type: cell-based; settings: Mus musculus, 96 h, 4 days, ATPlite
Procedure: as §1, §2

Chain of human MEK1 (Q02750 whole entry S218E/S222E): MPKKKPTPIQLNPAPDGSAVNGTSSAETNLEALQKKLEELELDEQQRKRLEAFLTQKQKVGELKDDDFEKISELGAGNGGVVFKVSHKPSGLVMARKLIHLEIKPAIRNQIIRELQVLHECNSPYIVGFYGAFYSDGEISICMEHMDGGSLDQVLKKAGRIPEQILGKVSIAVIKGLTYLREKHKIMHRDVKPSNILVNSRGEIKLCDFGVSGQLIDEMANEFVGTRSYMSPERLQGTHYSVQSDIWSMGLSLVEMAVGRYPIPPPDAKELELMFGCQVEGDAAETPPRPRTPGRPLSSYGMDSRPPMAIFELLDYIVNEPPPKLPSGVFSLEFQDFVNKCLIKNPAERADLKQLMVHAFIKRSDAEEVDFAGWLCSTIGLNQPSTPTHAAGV

Row | SMILES | pIC50 [1] | pIC50 [2] | pIC50 [3] | pIC50 [4]
1 | CSc1nnc(-c2ccncc2Nc2ccc(I)cc2F)o1 [Example 5, (2-Fluoro-4-iodo-phenyl)-[4-(5-methylsulfanyl-[1,3,4]oxadiazol-2-yl)-pyridin-3-yl]-amine] | ≥ 5.52 | ≥ 5.52 | ≥ 5.52 | ≥ 5.52
2 | CN(C)CCNc1nnc(-c2ccncc2Nc2ccc(I)cc2F)o1 [Example 22, N-{5-[3-(2-Fluoro-4-iodo-phenylamino)-pyridin-4-yl]-[1,3,4]oxadiazol-2-yl}-N′,N′-dimethyl-ethane-1,2-diamine] | ≥ 5.52 | ≥ 5.52 | ≥ 5.52 | ≥ 5.52
3 | OCC(O)CNc1nnc(-c2ccncc2Nc2ccc(I)cc2F)o1 (centres unmarked) [Example 11, 3-{5-[3-(2-Fluoro-4-iodo-phenylamino)-pyridin-4-yl]-[1,3,4]oxadiazol-2-ylamino}-propane-1,2-diol] | ≥ 5.52 | ≥ 5.52 | ≥ 5.52 | ≥ 5.52
4 | CC(Nc1nnc(-c2ccncc2Nc2ccc(I)cc2F)o1)C(=O)O (centres unmarked) [Example 53, 2-{5-[3-(2-Fluoro-4-iodo-phenylamino)-pyridin-4-yl]-[1,3,4]oxadiazol-2-ylamino}-propionic acid] | ≥ 5.52 | 4.60 to 5.52 | ≥ 5.52 | ≥ 5.52
5 | Nc1nnc(-c2ccncc2Nc2ccc(I)cc2F)[nH]1 [Example 41, [4-(5-Amino-4H-[1,2,4]triazol-3-yl)-pyridin-3-yl]-(2-fluoro-4-iodo-phenyl)-amine] | ≥ 5.52 | ≥ 5.52 | ≥ 5.52 | ≥ 5.52
6 | Fc1cc(I)ccc1Nc1cnccc1-c1nnc(NCCCN2CCOCC2)o1 [Example 19, (2-Fluoro-4-iodo-phenyl)-{4-[5-(3-morpholin-4-yl-propylamino)-[1,3,4]oxadiazol-2-yl]-pyridin-3-yl}-amine] | ≥ 5.52 | ≥ 5.52 | ≥ 5.52 | ≥ 5.52
7 | Fc1cc(I)ccc1Nc1cnccc1-c1nnco1 [Example 40, (2-Fluoro-4-iodo-phenyl)-(4-[1,3,4]oxadiazol-2-yl-pyridin-3-yl)-amine] | ≥ 5.52 | ≥ 5.52 | ≥ 5.52 | ≥ 5.52
8 | CN(C)c1nnc(-c2ccncc2Nc2ccc(I)cc2F)o1 [Example 42, [4-(5-Dimethylamino-[1,3,4]oxadiazol-2-yl)-pyridin-3-yl]-(2-fluoro-4-iodo-phenyl)-amine] | ≥ 5.52 | ≥ 5.52 | ≥ 5.52 | ≥ 5.52
9 | COc1ccc(Nc2cnccc2-c2nnc(N)o2)c(F)c1 [Example 25, [4-(5-Amino-[1,3,4]oxadiazol-2-yl)-pyridin-3-yl]-(2-fluoro-4-methoxy-phenyl)-amine] | ≥ 5.52 | ≥ 5.52 | ≥ 5.52 | ≥ 5.52
10 | CCOC(=O)c1nnc(-c2ccncc2Nc2ccc(I)cc2F)[nH]1 [Example 31, 5-[3-(2-Fluoro-4-iodo-phenylamino)-pyridin-4-yl]-4H-[1,2,4]triazole-3-carboxylic acid ethyl ester] | ≥ 5.52 | 4.60 to 5.52 | ≥ 5.52 | 4.60 to 5.52
11 | Fc1cc(I)ccc1Nc1cnccc1-c1nnc(NCCN2CCOCC2)s1 [Example 12, (2-Fluoro-4-iodo-phenyl)-{4-[5-(2-morpholin-4-yl-ethylamino)-[1,3,4]thiadiazol-2-yl]-pyridin-3-yl}-amine] | ≥ 5.52 | ≥ 5.52 | ≥ 5.52 | ≥ 5.52
12 | Cn1c(-c2ccncc2Nc2ccc(I)cc2F)n[nH]c1=O [Example 55, 5-[3-(2-Fluoro-4-iodo-phenylamino)-pyridin-4-yl]-4-methyl-2,4-dihydro-[1,2,4]triazol-3-one] | ≥ 5.52 | ≥ 5.52 | ≥ 5.52 | ≥ 5.52
13 | CC(=O)Nc1nnc(-c2ccncc2Nc2ccc(I)cc2F)o1 [Example 21, N-{5-[3-(2-Fluoro-4-iodo-phenylamino)-pyridin-4-yl]-[1,3,4]oxadiazol-2-yl}-acetamide] | ≥ 5.52 | ≥ 5.52 | ≥ 5.52 | ≥ 5.52
14 | NC(=O)CNc1nnc(-c2ccncc2Nc2ccc(I)cc2F)o1 [Example 46, 2-{5-[3-(2-Fluoro-4-iodo-phenylamino)-pyridin-4-yl]-[1,3,4]oxadiazol-2-ylamino}-acetamide] | ≥ 5.52 | ≥ 5.52 | ≥ 5.52 | ≥ 5.52
15 | CCOC(=O)c1nnc(-c2ccncc2Nc2ccc(I)cc2F)o1 [Example 39, 5-[3-(2-Fluoro-4-iodo-phenylamino)-pyridin-4-yl]-[1,3,4]oxadiazole-2-carboxylic acid ethyl ester] | ≥ 5.52 | < 4.60 | ≥ 5.52 | < 4.60
16 | Cn1c(-c2ccncc2Nc2ccc(I)cc2F)n[nH]c1=S [Example 8, 5-[3-(2-Fluoro-4-iodo-phenylamino)-pyridin-4-yl]-4-methyl-2,4-dihydro-[1,2,4]triazole-3-thione] | ≥ 5.52 | ≥ 5.52 | ≥ 5.52 | ≥ 5.52
17 | OCc1nnc(-c2ccncc2Nc2ccc(I)cc2F)[nH]1 [Example 32, {5-[3-(2-Fluoro-4-iodo-phenylamino)-pyridin-4-yl]-4H-[1,2,4]triazol-3-yl}-methanol] | ≥ 5.52 | ≥ 5.52 | ≥ 5.52 | ≥ 5.52

The next lines start with the values.

Row | pIC50 [1] | pIC50 [2] | pIC50 [3] | pIC50 [4] | SMILES
18 | ≥ 5.52 | 4.60 to 5.52 | ≥ 5.52 | 4.60 to 5.52 | O=C(O)CNc1nnc(-c2ccncc2Nc2ccc(I)cc2F)o1 [Example 45, {5-[3-(2-Fluoro-4-iodo-phenylamino)-pyridin-4-yl]-[1,3,4]oxadiazol-2-ylamino}-acetic acid]
19 | ≥ 5.52 | ≥ 5.52 | ≥ 5.52 | ≥ 5.52 | CCOC(=O)C(C)Nc1nnc(-c2ccncc2Nc2ccc(I)cc2F)o1 (centres unmarked) [Example 52, 2-{5-[3-(2-Fluoro-4-iodo-phenylamino)-pyridin-4-yl]-[1,3,4]oxadiazol-2-ylamino}-propionic acid ethyl ester]
20 | ≥ 5.52 | ≥ 5.52 | ≥ 5.52 | ≥ 5.52 | CN(C)C(=O)CNc1nnc(-c2ccncc2Nc2ccc(I)cc2F)o1 [Example 47, 2-{5-[3-(2-Fluoro-4-iodo-phenylamino)-pyridin-4-yl]-[1,3,4]oxadiazol-2-ylamino}-N,N-dimethyl-acetamide]
21 | ≥ 5.52 | ≥ 5.52 | ≥ 5.52 | ≥ 5.52 | CC1(C)OCC(CNc2nnc(-c3ccncc3Nc3ccc(I)cc3F)o2)O1 (centres unmarked) [Example 10, (4-{5-[(2,2-Dimethyl-[1,3]dioxolan-4-ylmethyl)-amino]-[1,3,4]oxadiazol-2-yl}-pyridin-3-yl)-(2-fluoro-4-iodo-phenyl)-amine]
22 | ≥ 5.52 | ≥ 5.52 | ≥ 5.52 | ≥ 5.52 | Nc1nnc(-c2ccncc2Nc2ccc(I)cc2F)s1 [Example 54, [4-(5-Amino-[1,3,4]thiadiazol-2-yl)-pyridin-3-yl]-(2-fluoro-4-iodo-phenyl)-amine]
23 | ≥ 5.52 | ≥ 5.52 | ≥ 5.52 | ≥ 5.52 | CNc1nnc(-c2ccncc2Nc2ccc(I)cc2F)s1 [Example 7, (2-Fluoro-4-iodo-phenyl)-[4-(5-methylamino-[1,3,4]thiadiazol-2-yl)-pyridin-3-yl]-amine]
24 | ≥ 5.52 | ≥ 5.52 | ≥ 5.52 | ≥ 5.52 | Nc1nnc(-c2ccncc2Nc2ccc(Br)cc2F)o1 [Example 34, [4-(5-Amino-[1,3,4]oxadiazol-2-yl)-pyridin-3-yl]-(4-bromo-2-fluoro-phenyl)-amine]
25 | ≥ 5.52 | ≥ 5.52 | ≥ 5.52 | ≥ 5.52 | Nc1nnc(-c2ccncc2Nc2ccc(I)cc2Cl)o1 [Example 24, [4-(5-Amino-[1,3,4]oxadiazol-2-yl)-pyridin-3-yl]-(2-chloro-4-iodo-phenyl)-amine]
26 | ≥ 5.52 | ≥ 5.52 | ≥ 5.52 | ≥ 5.52 | Fc1cc(I)ccc1Nc1cnccc1-c1nnc(NCCN2CCCCC2)o1 [Example 18, (2-Fluoro-4-iodo-phenyl)-{4-[5-(2-piperidin-1-yl-ethylamino)-[1,3,4]oxadiazol-2-yl]-pyridin-3-yl}-amine]
